Measurements published in patent US12201745B2, “Vascular extracellular matrix hydrogel” (University of Pittsburgh—Of the Commonwealth System of …, priority 2016, dated 2025).

Experiments:
[1] = tested on: Primary human adventitia-derived endothelial cells; assay: Endothelial cell branching assay (tube-like structures on GFR-Matrigel); format: cell-based; details: 100 nM
Method: FIGS. 13A-13C. Effect of ECM bioscaffolds on network formation of tube-like structures in vitro. FIG. 13A—Human adventitia-derived endothelial cells were cultured on growth factor reduced-Matrigel substrates: (A) DMSO, 0.05% (v/v), (B) Digestion buffer (1% (w/v) Pepsin in 0.1 N HCl), (C) pAdv ECM, and (D) pSIS ECM. FGF2 inhibitor PD173074 (100 nM) was added to the culture medium of above treatments shown in parallel wells (E-H). A-H: One representative 10× field is shown, selected from one of three replicates of two independent experiments. All scale bars=50 μm for (A-H). Quantification of the number (FIG. 13B) and total length (FIG. 13C) of tube-like structures from 5×5 stitched fields captured at 10× for non-ECM-supplemented (open bars), pAdv (solid bars) and pSIS (gray bars) ECM-supplemented substrates in the absence and presence of PD173074. Bars represent mean of three assay replicates ±standard deviation. Images and graphs represent data from one of two independent experiments. *Significant from pepsin HCl, p<0.02; #Significant from pAdv ECM-treated cells in the absence of PD173074, p<0.03.
Endothelial Cell Branching Assay. […] Total number and length of tube-like structures were quantified using NIS Elements Software.

[2] = tested on: chick chorioallantoic membrane (CAM); assay: Chick chorioallantoic membrane (CAM) model of in vivo angiogenesis; details: 100 nM PD173074 with 250 μg/mL pAdv ECM bioscaffold in fibrin scaffold
Method: FIGS. 14A-14D. Effect of ECM bioscaffolds on angiogenesis in vivo. FIG. 14A) Representative bright field images of scaffolds before (Time 0) and after (72 hr) incubation on the chorioallantoic membrane (CAM) of the chick embryo. […] There was no appreciable angiogenic response detected around scaffolds loaded with digestion buffer (1% (w/v) pepsin in 0.1 N HCl) or DMSO. Addition of the FGF2 inhibitor PD173074 (100 nM) abrogated the angiogenic response to pAdv ECM. […] All scale bars for FIG. 14A=5 mm. FIG. 14B) Representative histological cross-sections of CAM assay scaffolds. The CAM vasculature was visualized using injected tomato lectin-Dylight® 650 (red) and nuclei are labeled with Hoechst dye (blue). A dashed white line denotes the scaffold/CAM interface. […] The maximum tested dose of pAdv ECM (500 μg/mL) inhibited invasion of blood vessels into the scaffold. […] All scale bars in FIG. 14B and FIG. 14C=[…] *Avascular zone comprised of lectin-negative cells. FIG. 14D). […] (*) avascular zone comprised of lectin-negative cells. All scale bars for FIG. 14D=20 μm.
Chick Chorioallantoic Membrane (CAM) Model of In Vivo Angiogenesis. […]

CCN(CC)CCCCNc1ncc2cc(-c3cc(OC)cc(OC)c3)c(NC(=O)NC(C)(C)C)nc2n1 [PD173074]
effect on tube-like formation on non-ECM substrates ([1]; Matrigel alone or pepsin HCl-supplemented substrates): did not affect tube-like formation | effect on tube-like formation on ECM-supplemented substrates ([1]; pAdv and pSIS ECM bioscaffold-supplemented substrates vs absence of inhibitor): decreased the tube-like formation | effect on pAdv ECM bioscaffold-induced angiogenesis [2]: completely inhibited
